Measurements taken from patent US20060257368A1, “Devices and methods for improved viability of cells” (Clemson University, priority 2005, published 2006).

Tests used:
[1] = system: Human umbilical cord stem cells; test: Survival of stem cells transplanted into brain tissue after exposure to a hypoxia simulating agent; assay type: in vivo; details: cells exposed to 50 uM/ml for 12 hours before transplantation into brain tissue; vs untreated group
Protocol: Human umbilical cord stem cells were exposed to 50 uM/ml ethyl 3,4-dihydroxybenzoate for 12 hours before transplanted into brain tissue to improve their tolerance to hypoxia condition at the injection site after transplantation procedure. Ethyl 3,4-dihydroxybenzoate can increase glucose uptake and glycolytic metabolism of cells. Increased glucose uptake and glycolytic metabolism is an important compensatory mechanism that allows ATP production to be maintained. Such an approach also increases resistance of the transplanted cells to metabolic poison. The resulting transplanted cells will be adjusted to a deficiency of oxygen and, thus, more resistant to transplantation procedures. The survival rate of the transplanted cells is higher for ethyl 3,4-dihydroxybenzoate treated group than that for untreated group.

[2] = system: adult Fischer 344 male rat brains; test: Adult brain tissue reaction to PNPX loaded HFMs implanted into rat brain (immunohistochemistry); assay type: in vivo; details: constant release into local brain tissue, compared to blank control HFM; anti-GFAP and anti-CSPG staining; FIG. 6
Description: Following adult central nervous system (CNS) injury, resident cells and blood-derived inflammatory cells become activated and migrate to the lesion site, eventually form a dense glial scar that is believed to play a significant role in inhibiting CNS regeneration. The inhibitory nature of the glial scar is due not only to the existence of inflammatory cell types, but also to the ECM molecules that are derived from them. […] Blocking CSPG biosynthesis may be a potential means to ameliorate CNS glial scar formation. […] CSPG inhibitor 4-nitrophenyl-β-D-xylopyranoside (PNPX) was incorporated into the HFMs during the fabrication process. The inflammatory responses of adult brain tissue to the HFMs with or without PNPX were evaluated and compared.
Polyacrylonitrile/polyvinylchloride copolymer (PAN/PVC) was used as a model non-degradable polymer as a carrier for PNPX delivery, and poly(DL-Lactide-co-glycolide) (PLGA) 50/50 copolymers was employed as a model degradable polymer for PNPX delivery. Polymer-PNPX was dissolved in dimethyl sulfoxide (DMSO). 1% phthalized-chitosan was added into the solution to enhance the PNPX loading efficiency. PNPX loaded HFMs were fabricated using a wet phase-inversion technique. PNPX loading efficiency and releasing profiles were studied in vitro using HPLC. […]

SMILES	survival rate of the transplanted cells [1]	glial scarring response in the vicinity of the PNPX loaded HFM [2]
CCOC(=O)c1ccc(O)c(O)c1 [ethyl 3,4-dihydroxybenzoate]	higher	
O=[N+]([O-])c1ccc(O[C@@H]2OC[C@@H](O)[C@H](O)[C@H]2O)cc1 [PNPX, 4-nitrophenyl-β-D-xylopyranoside]		significantly (P<0.05) suppressed
